# Laboratory results taken from US20060211764A1, “Cell activator, process for producing cell activator and apparatus therefor” (priority 2002, published 2006).
# Tests used:
# [1] = tested on: hepatitis C; experiment: Administration to a human patient, hepatitis C; type: in vivo; conditions: person; 20 g/day for 16 months
# [2] = Blood screening and biochemical examination of blood in bovines given CPL; type: in vivo, bovine
# [3] = tested on: bacterial diarrhea; experiment: Administration to milking bovines, bacterial diarrhea; type: in vivo, bovine
# Excerpt: In the milking bovines, a bacterial diarrhea started to spread. Initially, four bovines infected by the bacterial diarrhea one after another. […] The bovines fed as usual even in the condition of diarrhea and no decrease in the amount of milk was observed.
# [4] = tested on: cancer cells; experiment: Effects on cancer cells; type: cell-based
# Excerpt: (§1) Morphologically, it causes vacuolation, and the expansion of the cytoplasm of cells, disintegration and aggregation of the nucleus. […] These are considered to inhibit not only the synthesis of ATP but also the actions of mRNA and be involved in the synthesis of RNA and DNA, and the generation of intracellular energy by acting on the metabolism of the intracellular organelle such as rough-surfaced endoplasmic reticulum, smooth-surfaced endoplasmic reticulum, ribosome, Golgi apparatus, etc., and as a result, controlling the metabolism of the cells, influencing the synthesis of proteins/glycoprotein, intracellular lipid metabolism, and movement and transport of ions. […] Morphologically, in the case that cells end up degenerating, the degeneration generally changes first to the nucleus followed by the cytoplasm.
# [5] = tested on: ketosis; experiment: Administration to bovines, ketosis (obese syndrome); type: in vivo, bovine; conditions: 100 g/day mesothiol 10 days before delivery, then 100g/day of CPL in combination for 7 days after delivery
# Method: For 10 days before the expected date of delivery, 100 g/day of mesothiol was administered in bovines with ketosis.
# [6] = tested on: diabetes/rheumatism/hypertension; experiment: Administration to a human patient, diabetes/rheumatism/hypertension; type: in vivo; conditions: person; 15 g/day for 30 days, then up to 20 g/day
# [7] = tested on: pyruvic acid kinase; experiment: Inhibition of pyruvic acid kinase activity; type: biochemical; conditions: enzyme of the anaerobic glycolytic pathway
# Excerpt: as §1
# [8] = tested on: lipid metabolism system; experiment: Effects of CPL ingestion on lipid metabolism; type: in vivo
# [9] = tested on: subclavian lymphoma; experiment: Administration to a human patient, subclavian lymphoma; type: in vivo; conditions: female, 50 g/day for 90 days
# [10] = tested on: breast cancer; experiment: Administration to human patients, breast cancer; type: in vivo; conditions: 20 g/day for 210 days
# Excerpt: After extirpation, metastasized to the eye.
# person, metastasized to the bone marrow.
# [11] = tested on: leukemia; experiment: Administration to human patients, leukemia; type: in vivo; conditions: person
# [12] = tested on: ovarian cyst; experiment: Administration to human patients, ovarian cyst (ultrasonography, MRI); type: in vivo
# Excerpt: A case of a patient whose uterus was extirpated due to uterine myoma. This patient has had two celitomies with a caesarean section. They received an examination for cancer because abnormal bleeding has continued recently. […] Moreover, a prominent part was found in part of the cyst and it was suspected to be malign (Photograph (1)).
# The size of the ovarian cyst measured with ultrasonography carried out a few days later was reduced down to approximately 4 cm (Photograph (2)).
# A case of a patient whose wedding day was drawing close. […] In consideration that hormone abnormalities were the cause, follow-ups were made for 2-3 weeks. Carrying out a subsequent examination, the ovary was further swollen to 6.5 cm (Photograph 5).
# [13] = tested on: laryngeal cancer; experiment: Administration to a human patient, laryngeal cancer; type: in vivo; conditions: person; 20 g/day for 150 days
# [14] = tested on: infantile asthma, atopic dermatitis; experiment: Administration to a child, infantile asthma, atopic dermatitis; type: in vivo, human; conditions: CPL solution plus spraying agent, 15 g/day for 40 days, 10 g/day for next 140 days
# Method: In addition to the said solution, a spraying agent was used. The said spraying agent was prepared by filling a spraying container with a solution, which was prepared by further diluting by a flux the ointment manufactured by dissolving cyclic polylactic acids in a flux such as propylene glycol, etc. before they solidify, which was described in the <Example of manufacturing> section.
# [15] = tested on: infertility; experiment: Administration to human patients, infertility; type: in vivo
# [16] = tested on: pulmonary cancer metastasis lymphoma; experiment: Administration to a human patient, pulmonary cancer metastasis lymphoma; type: in vivo; conditions: person; 15 g/day for 180 days
substance,measurement,setting,value
Cyclic Poly-lactate [CPL],condition of hepatitis C patient,[1],satisfactory condition
same,shadow on the liver,[1],disappeared
same,WBC,"[2]; bovine 901 (Screening), 3 May, treatment from 30 April, pretreatment 97",96 ×10^2
same,GOT,"[2]; bovine 901 (Screening), 3 May, treatment from 30 April, pretreatment 134",128 U/I
same,TCHO,"[2]; bovine 901 (Screening), 3 May, treatment from 30 April, pretreatment 255",266 mg/dL
same,CPK,"[2]; bovine 901 (Screening), 3 May, treatment from 30 April, pretreatment 819",82 U/I
same,WBC,"[2]; bovine 901 (Screening), 7 May, pretreatment 97",94 ×10^2
same,GOT,"[2]; bovine 901 (Screening), 7 May, pretreatment 134",116 U/I
same,TCHO,"[2]; bovine 901 (Screening), 7 May, pretreatment 255",245 mg/dL
same,CPK,"[2]; bovine 901 (Screening), 7 May, pretreatment 819",97 U/I
same,WBC,"[2]; bovine 901 (Screening), 10 May, completion date of treatment, pretreatment 97",71 ×10^2
same,GOT,"[2]; bovine 901 (Screening), 10 May, completion date of treatment, pretreatment 134",115 U/I
same,TCHO,"[2]; bovine 901 (Screening), 10 May, completion date of treatment, pretreatment 255",286 mg/dL
same,CPK,"[2]; bovine 901 (Screening), 10 May, completion date of treatment, pretreatment 819",113 U/I
same,WBC,"[2]; bovine 923 (Garget), 3 May, treatment from 30 April, Spectrazol 2-4 May, pretreatment 101",111 ×10^2
same,GOT,"[2]; bovine 923 (Garget), 3 May, treatment from 30 April, Spectrazol 2-4 May, pretreatment 123",107 U/I
same,TCHO,"[2]; bovine 923 (Garget), 3 May, treatment from 30 April, Spectrazol 2-4 May, pretreatment 247",255 mg/dL
same,CPK,"[2]; bovine 923 (Garget), 3 May, treatment from 30 April, Spectrazol 2-4 May, pretreatment 563",203 U/I
same,WBC,"[2]; bovine 923 (Garget), 7 May, pretreatment 101",97 ×10^2
same,GOT,"[2]; bovine 923 (Garget), 7 May, pretreatment 123",81 U/I
same,TCHO,"[2]; bovine 923 (Garget), 7 May, pretreatment 247",208 mg/dL
same,CPK,"[2]; bovine 923 (Garget), 7 May, pretreatment 563",133 U/I
same,WBC,"[2]; bovine 923 (Garget), 10 May, completion date of treatment, pretreatment 101",110 ×10^2
same,GOT,"[2]; bovine 923 (Garget), 10 May, completion date of treatment, pretreatment 123",107 U/I
same,TCHO,"[2]; bovine 923 (Garget), 10 May, completion date of treatment, pretreatment 247",259 mg/dL
same,CPK,"[2]; bovine 923 (Garget), 10 May, completion date of treatment, pretreatment 563",121 U/I
same,"other blood responses such as WBC, GOT, and TCHO",[2]; bovines given CPL,no specific changes
same,CPK (muscle enzyme) mean level,[2]; group of bovines with markedly high levels of CPK,extremely low
same,response of bacterial diarrhea,"[3]; 50 g/day, 100 g/day of Neothor in combination in severe cases, in most bovines",complete response
same,amount of milk,[3]; bovines with bacterial diarrhea given 50 g/day,no decrease
same,proliferation of cancer cells,[4],controls the proliferation
same,level of γGTP,[5]; 100 in onset,35
same,level of GOT,[5]; 549 in onset,83
same,need for dialysis,[6],dialysis was not necessary
same,activity of pyruvic acid kinase,[7],inhibits
same,fatty acid composition of triglyceride,[8],changes
same,CEA,[9]; decreased from 20.4,5.4
same,CA 15,[9]; decreased from 70,20.3
same,course of breast cancer metastasized to the eye,[10]; after extirpation,satisfactory progress
same,tumor marker,"[10]; person, breast cancer metastasized to bone marrow, decreased from 200",5
same,outcome of leukemia,[11]; 15-20 g/day for 170 days,cured
same,outcome of leukemia,[11]; 15 g/day for 5 months,cured
same,outcome of leukemia,[11]; 15 g/day for 220 days,cured
same,recurrence of leukemia,[11]; for 2 years onwards,No recurrence
same,ovarian cyst at preoperative MRI examination,"[12]; patient, 30-40 g/day until operation",disappeared
same,size of ovarian cyst by ultrasonography,"[12]; patient, 30-40 g/day, a few days later, initially approximately 5 cm",approximately 4 cm
same,ovarian cyst after further administration,"[12]; person, 2 weeks after further administration",disappeared completely
same,size of ovarian cyst by ultrasonography,"[12]; person, CPL for 2 weeks, 6.5 cm before",below 4 cm
same,outcome of laryngeal cancer,[13],cured
same,asthmatic seizures,[14],stopped
same,eczema on the back and face,[14],disappeared
same,itchiness,[14],cured
same,number of patients who conceived,"[15]; 10 patients with infertility, 6-9 g/day",8
same,lower abdominal pain,"[15]; person, endometriosis, ovarian cyst, 6 g/day, within the next 2-3 days",ameliorated
same,conception,"[15]; person, after endometriosis symptoms ameliorated",naturally conceived
same,course of pulmonary cancer metastasis lymphoma,[16],satisfactory progress
